# Laboratory results: PMC8315922, “In Vitro Identification and In Vivo Confirmation of Inhibitors for Sweet Potato Chlorotic Stunt Virus RNA Silencing Suppressor, a Viral RNase III” (Journal of Virology, 2021)
# Like-named read-outs stand apart in the source and are kept apart here.
# Experiments:
# SPCSV [1] = assay: Virus accumulation (RT-qPCR of coat protein RNA) in coinfected sweetpotato plants grown in culture medium: SPCSV; type: in vivo, Sweet potato chlorotic stunt virus; conditions: for SPCSV accumulation reduced / viral titer SPCSV (log2 fold change relative to controls): plants in culture medium, 50 μM; for SPCSV_FC (fold change of viral accumulation): 50 μM in culture medium, 28 days, relative to DMSO control
# Procedure: (§1) Since tests in culture medium consume smaller amounts of compounds and can be carried out under relatively controlled conditions, sweetpotato plants coinfected with SPCSV and SPFMV were grown in medium supplemented with one of the 30 inhibitor candidates at a concentration of 50 μM. Their effects on plant growth were monitored by imaging the plants once a week. […] In addition, virus accumulation was quantified by measuring the relative abundance of the transcripts encoding viral coat proteins using RT-qPCR ([32]). The effect of individual compounds on virus accumulation was estimated by comparing treated and control plants.
# (§2) Sweetpotato plants cultivar 'Huachano' (accession CIP420065) were side-graft inoculated with both SPFMV (East African strain isolate Nam1) and SPCSV-Ug (East African serotype 2) as described previously ([62]). Plantlets were propagated by taking single-node stems grown in a plant culture medium ([33]). Next, plantlets with newly formed roots were transferred to glass tubes (18 by 150 mm) containing 10 ml of medium supplemented with either 50 μM compound (diluted in DMSO; final DMSO concentration, 0.1%) or only 0.1% DMSO as a control. For plant experiments in soil, plantlets were transferred to pots (6 by 6 by 10 cm) filled with a mixture of sand, humus, and washed soil. After 1 week, plants were treated by foliar spraying using either individual compounds at a single concentration (10 μM) (treatment) or water (control/mock) twice a week for 1 month. All plants were grown at 22°C with 60% humidity and a 16-h light/8-h dark photoperiod for 28 days in culture medium and for 41 days in soil. The Finnish National Plant Phenotyping Infrastructure (NaPPI) was used to monitor plant viral disease symptoms as described in our previous study ([33]). Four compounds were tested with the phenotyping platform in two independent batches, each of which included five biological replicates.
# (§3) Leaf samples were collected from plants grown in culture medium or soil for 28 or 41 days, respectively, and frozen in liquid nitrogen. Total RNA was extracted using the Spectrum plant total RNA kit (Sigma-Aldrich). First-strand cDNA was synthesized using the Transcriptor first-strand cDNA synthesis kit (Roche, Basel, Switzerland). […] All RT-qPCR experiments were conducted in triplicate on three and five biological replicates from plants grown in culture medium and soil, respectively. The primer list can be found in our previous study ([33]).
# (§4) For HTS, the activity of CSR3 was calculated by measuring the change in fluorescence as a function of the reaction time using MARS Data Analysis software (BMG Labtech). To evaluate the CSR3 inhibition efficiency of individual compounds, the PI of each compound was calculated using the slope values for the sample, positive control, and negative control according to the following equation: PI = 100 × [1 − (sample − positive)/(negative − positive)]%. IC50 and DSS values were calculated using concentration-specific PI values according to a previous study ([31]). Relative gene expression was calculated using the classical 2^−ΔΔ^CT method ([63]).
# SPFMV [2] = assay: Virus accumulation (RT-qPCR of coat protein RNA) in coinfected sweetpotato plants grown in culture medium: SPFMV; type: in vivo, Sweet potato feathery mottle virus; conditions: for SPFMV accumulation reduced / viral titer SPFMV (log2 fold change relative to controls): plants in culture medium, 50 μM; for SPFMV_FC (fold change of viral accumulation): 50 μM in culture medium, 28 days, relative to DMSO control
# Procedure: as §1, §2, §3, §4
# [3] = target: CSR3 (RNase III of SPCSV) (Sweet potato chlorotic stunt virus, UniProt Q8JJW8); assay: Kinetic-based FRET dose-response assay (IC50, DSS); type: biochemical; set-up: DSS / DSS Comm 1 / DSS FIMM1 / DSS FIMM 2: scale not given here; conditions: for DSS Comm 1 / DSS FIMM1 / DSS FIMM 2: drug sensitivity score; for DSS Comm 1: repeat Comm 1; for DSS FIMM1: repeat FIMM 1; for DSS FIMM 2: repeat FIMM 2
# Procedure: A dose-response assay with six concentrations (1.25 nM to 50 μM) was carried out in three independent experiments, which included two tests with the 112 selected FIMM compounds (i.e., compounds prepared by the HTB-FIMM) and one test using the newly ordered commercial compounds (99 of the 112 compounds, i.e., compounds prepared by a second supplier). A dose-response curve was generated for each compound based on PI values as a function of the concentration.
# The HTS assay was designed based on FRET using a 22-bp siRNA (forward sequence, […]; reverse sequence, […]) with a 2-nucleotide (nt) 3′ overhang labeled with the fluorescent dye 6-carboxyfluorescein (FAM) and a black hole quencher (BHQ1) on the sense strand (Metabion, Munich, Germany). Screening was initially carried out at one concentration (10 μM) in a 20-μl reaction buffer. […] All reaction mixtures contained 50 nM CSR3 and 375 nM labeled siRNA in 384-well black flat-bottom microplates (Corning, NY, USA) and were prepared using a BioTek MultiFlo FX dispenser with single-channel random access dispenser cassettes (BioTek, Winooski, VT, USA). The plates were read with a PHERAstar FS reader (BMG Labtech, Ortenberg, Germany).
# as §4
# CSR3 [4] = target: T1, CSR3 (Sweet potato chlorotic stunt virus, UniProt Q8JJW8); assay: Binding affinity assay using MST; conditions: for Comments: MST behaviour of compound (V-shape response, fluorescence quenching, interference, aggregator); for Kd: MST binding affinity to CSR3; for Kd / Binding (Yes/No) / Response Amplitude: Table S4; for Binding (Yes/No): MST binding call; for Response Amplitude: MST response amplitude
# T1 sequence (Q8JJW8 1-228): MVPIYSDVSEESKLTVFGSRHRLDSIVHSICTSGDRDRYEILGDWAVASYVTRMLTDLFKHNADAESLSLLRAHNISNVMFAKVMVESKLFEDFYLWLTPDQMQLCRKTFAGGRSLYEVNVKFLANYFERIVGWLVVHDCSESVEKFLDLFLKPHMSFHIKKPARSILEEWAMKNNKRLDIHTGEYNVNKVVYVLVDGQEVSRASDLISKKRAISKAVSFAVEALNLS
# Procedure: (§5) Binding affinity assays were first carried out with the 99 commercial compounds using the MST method.
# The labeled-protein solution containing 500 nM proteins and 40 nM dye was prepared in PBS buffer with 2% dimethyl sulfoxide (DMSO) for the assay. The 12 concentrations for each compound were obtained by 2-fold serial dilutions (0.2 μM to 400 μM). […] Two independent experiments were carried out in premium coated capillaries (NanoTemper, Munich, Germany) using a Monolith NT.Automated instrument (NanoTemper) with the power set at high (80%), the light-emitting diode (LED) power (pico red) set at 5%, and the on-time set at 20 s. The dissociation constant (Kd) was determined using the MO.Affinity Analysis program (NanoTemper).
# SPCSV [5] = conditions: plants in soil, 10 μM foliar spray twice a week for 1 month, vs water-treated
# Procedure: (§6) Compounds were administered by regular foliar spray over 1 month.
# as §2
# (§7) Leaf samples were collected from plants grown in culture medium or soil for 28 or 41 days, respectively, and frozen in liquid nitrogen. Total RNA was extracted using the Spectrum plant total RNA kit (Sigma-Aldrich). First-strand cDNA was synthesized using the Transcriptor first-strand cDNA synthesis kit (Roche, Basel, Switzerland). Gene expression was measured in a final volume of 10 μl (containing 2 μl 10-fold-diluted cDNA, 5 μl SYBR green I master mix [Roche], and 2.5 μM primers) using the LightCycler 480 instrument II (Roche). All RT-qPCR experiments were conducted in triplicate on three and five biological replicates from plants grown in culture medium and soil, respectively. The primer list can be found in our previous study ([33]).
# as §4
# SPFMV [6] = conditions: plants in soil, 10 μM foliar spray twice a week for 1 month, vs water-treated
# Procedure: as §6, §2, §7, §4
# sweetpotato plants = conditions: 50 μM in culture medium
# [7] = tested on: human enzymes or bacterial proteins; set-up: method as in earlier work; conditions: ref PubChem https://pubchem.ncbi.nlm.nih.gov/compound/7114450#section=Biological-Test-Results; cited from earlier work
# CSR3 [8] = target: T1, CSR3; assay: Binding affinity assay using SPR; conditions: SPR dose-response 3 μM to 200 μM, 25°C, numbers match M (cf. Fig 5A)
# Procedure: as §5
# CSR3 was purified as described above and stored in PBS buffer. SPR was performed on a BiacoreT100 instrument (GE Healthcare) using a sensor S CM5 chip (GE Healthcare). CSR3 (10 ng/μl) was immobilized using the standard amine-coupling method according to the manufacturer’s instructions with immobilization buffer (10 mM sodium acetate [pH 4]); the final response unit (RU) value was 11,459. Compounds at a single concentration (100 μM) or consisting of 2-fold serial dilutions (3 μM to 200 μM) were flowed over the sensor surface using PBS buffer with 0.01 M HEPES, 0.05% surfactant P20, and 2% DMSO. […] To eliminate bulk interference by DMSO, a solvent correction consisting of DMSO at concentrations ranging from 1.5% to 2.8% was carried out for every 30 samples. Steady-state affinity (KD) values were determined using BiacoreT100 Evaluation software, v.2.04 (GE Healthcare).
# [9] = kinetic-based HTS, Fig 5A summary
# [10] = read-out: IC50 Comm 1, repeat Comm 1 (commercial compounds), 1.25 nM to 50 μM, unit inferred, numbers match nM
# [11] = repeat FIMM 2 (FIMM library compounds), 1.25 nM to 50 μM, unit inferred, numbers match nM, read-out: IC50 FIMM 2
# [12] = read-out: IC50 FIMM1, repeat FIMM 1 (FIMM library compounds), 1.25 nM to 50 μM, unit inferred, numbers match nM (cf. Fig 5A)
# [13] = read-out: IC50 FIMM 2, repeat FIMM 2 (FIMM library compounds), 1.25 nM to 50 μM, unit inferred, numbers match nM
# [14] = repeat Comm 1 (commercial compounds), 1.25 nM to 50 μM, unit inferred, numbers match nM, read-out: IC50 Comm 1
# [15] = repeat FIMM 1 (FIMM library compounds), 1.25 nM to 50 μM, unit inferred, numbers match nM (cf. Fig 5A), read-out: IC50 FIMM1
Compound,SPCSV accumulation reduced (SPCSV [1]),SPFMV accumulation reduced (SPFMV [2]) [fold],DSS Comm 1 [3],DSS FIMM1 [3],DSS FIMM 2 [3],"DSS [3, 9]","IC50 [3, 9] [nM]","IC50 [3, 10] [nM]","IC50 [3, 11] [nM]",Binding (Yes/No) (CSR3 [4]),Response Amplitude (CSR3 [4]),SPCSV_FC (fold change of viral accumulation) (SPCSV [1]),SPFMV_FC (fold change of viral accumulation) (SPFMV [2]),Toxicity (sweetpotato plants),"IC50 [3, 14] [nM]",other results
"CN1CCc2cccc3c2[C@H]1Cc1ccc(O)c(O)c1-3 [FIMM000096, reference compound]",~4 fold,~2,12.7,12.7,12.8,12.7,~2950,2950,2880,Yes,11808,–,–,–,–,Comments (CSR3 [4]): Fluorescence quenching; Kd (CSR3 [4]): 0.69 µM
O=C(O)c1ccc2c(c1)C1C=CCC1C(c1ccccc1)N2 (centres unmarked) [FIMM005536],approximately 8 fold,~4,12.4,12.5,12.1,12.5,~2740,2880,–,No,0,0.1274,0.2931,no,–,"log2 fold change in coat protein expression of SPCSV (SPCSV [5]): −1.67; log2 fold change in coat protein expression of SPFMV (SPFMV [6]): −1.36; viral titer SPCSV (log2 fold change relative to controls) (SPCSV [1]): −2.97; viral titer SPFMV (log2 fold change relative to controls) (SPFMV [2]): −1.77; IC50 [3, 12]: 2750 nM; IC50 [3, 13]: 2930 nM; activity in inhibitor screens for human enzymes or bacterial proteins [7]: inactive"
O=C(O)c1ccc2c(c1)C1C=CCC1C(c1ccc(F)cc1)N2 (centres unmarked) [FIMM051696],~4 fold,~4,11.1,12.4,10.8,12.4,~2820,3610,–,No,0.517,0.2923,0.3032,no,–,"viral titer SPCSV (log2 fold change relative to controls) (SPCSV [1]): −1.77; viral titer SPFMV (log2 fold change relative to controls) (SPFMV [2]): −1.72; IC50 [3, 12]: 2820 nM; IC50 [3, 13]: 4000 nM; activity in inhibitor screens for human enzymes or bacterial proteins [7]: inactive; Kd (CSR3 [8]; unit inferred, read-out: Steady State Affinity): 3.65 µM"
CN1C(=O)C(=CNc2ccc(F)cc2)C(=O)N(C)C1=O [FIMM059523],–,–,–,0,2.3,–,–,–,21000,–,–,–,–,–,–,–
O=S(=O)(O)c1cccc2cc(O)ccc12 [FIMM072577],–,–,20.7,18.3,22.1,–,–,–,295,No,0,0.7975,1.005,no,391,"IC50 [3, 15]: 699 nM; Steady State Affinity (CSR3 [8]; unit not given): non binder; Comments (CSR3 [4]): Interference"
CCn1c(S)nnc1CCNC(=O)c1cccs1 [FIMM099662],–,–,6,11.7,10.2,–,–,–,3810,Yes,21,0.5483,0.9387,no,11400,"IC50 [3, 15]: 3070 nM; Kd (CSR3 [4]; read-out: Kd): 1.78 µM"
CC(C)(C)C1CCc2c(sc(NC(=O)C3CC=CCC3C(=O)O)c2C(N)=O)C1 (centres unmarked) [FIMM104970],–,–,2.4,0,2.1,–,–,–,–,No,2.23,–,–,–,3620,–
